Data as given in patent US20220204439A1, “LIPIDS AND LIPID NANOPARTICLE FORMULATIONS FOR DELIVERY OF NUCLEIC ACIDS” (Acuitas Therapeutics, Inc., priority 2015, published 2022).

Legend:
[1] = pKa of formulated cationic lipids in lipid nanoparticles (TNS fluorescence assay); type: physicochemical; conditions: probe 2-(p-toluidino)-6-napthalene sulfonic acid (TNS), 1 µM final; formulated in LNP cationic lipid/DSPC/cholesterol/PEG-lipid 50/10/38.5/1.5 mol %; pH of half-maximal TNS fluorescence
Protocol: As described elsewhere, the pKa of formulated cationic lipids is correlated with the effectiveness of LNPs for delivery of nucleic acids (see Jayaraman et al, Angewandte Chemie, International Edition (2012), 51(34), 8529-8533; Semple et al, Nature Biotechnology 28, 172-176 (2010)). The preferred range of pKa is ˜5 to ˜7. […] Lipid nanoparticles comprising of cationic lipid/DSPC/cholesterol/PEG-lipid (50/10/38.5/1.5 mol %) in PBS at a concentration of 0.4 mM total lipid are prepared using the in-line process as described in Example 28. TNS was prepared as a 100 μM stock solution in distilled water. Vesicles were diluted to 24 μM lipid in 2 mL of buffered solutions containing, 10 mM HEPES, 10 mM MES, 10 mM ammonium acetate, 130 mM NaCl, where the pH ranged from 2.5 to 11. An aliquot of the TNS solution was added to give a final concentration of 1 μM and following vortex mixing fluorescence intensity was measured at room temperature in a SLM Aminco Series 2 Luminescence Spectrophotometer using excitation and emission wavelengths of 321 nm and 445 nm. A sigmoidal best fit analysis was applied to the fluorescence data and the pKa was measured as the pH giving rise to half-maximal fluorescence intensity (see FIG. 2).

[2] = tested on: luciferase expression in the liver; assay: In vivo luciferase mRNA expression in mouse liver with lipid nanoparticle formulations; design: species or system C57BL/6 mice; conditions: tail vein injection, liver 4 hours after administration, FLuc mRNA; for Liver Luc @ 0.3 mg/kg (ng luc/g liver) / Liver Luc @ 0.3 mg/kg dose: 0.3 mg mRNA/kg; for Liver Luc @ 0.3 mg/kg (ng luc/g liver) / Liver Luc @ 1.0 mg/kg (ng luc/g liver): LNP 50% cationic lipid/10% DSPC/38.5% cholesterol/1.5% PEG-DMA; for Liver Luc @ 1.0 mg/kg (ng luc/g liver) / Liver Luc @ 1.0 mg/kg dose: 1.0 mg mRNA/kg; for Liver Luc @ 0.3 mg/kg dose / Liver Luc @ 1.0 mg/kg dose: LNP 50% cationic lipid/10% DSPC/38.5% cholesterol/1.5% PEG-DMG
Protocol: Cationic lipid (MC3), DSPC, cholesterol and PEG-lipid were solubilized in ethanol at a molar ratio of 50:10:38.5:1.5. Lipid nanoparticles (LNP) were prepared at a total lipid to mRNA weight ratio of approximately 10:1 to 30:1. Briefly, the mRNA was diluted to 0.2 mg/mL in 10 to 50 mM citrate buffer, pH 4. Syringe pumps were used to mix the ethanolic lipid solution with the mRNA aqueous solution at a ratio of about 1:5 to 1:3 (vol/vol) with total flow rates above 15 ml/min. The ethanol was then removed and the external buffer replaced with PBS by dialysis. Finally, the lipid nanoparticles were filtered through a 0.2 μm pore sterile filter. Lipid nanoparticle particle size was 70-90 nm diameter as determined by quasi-elastic light scattering using a Nicomp 370 submicron particle sizer (Santa Barbara, Calif.).
Studies were performed in 6-8 week old female C57BL/6 mice (Charles River) according to guidelines established by an institutional animal care committee (ACC) and the Canadian Council on Animal Care (CCAC). Varying doses of mRNA-lipid nanoparticle were systemically administered by tail vein injection and animals euthanized at specific time points (1, 2, 4, 8 and 24 hrs) post-administration. Liver and spleen were collected in pre-weighted tubes, weights determined, immediately snap frozen in liquid nitrogen and stored at −80° C. until processing for analysis.
For liver, approximately 50 mg was dissected for analyses in a 2 mL FastPrep tubes (MP Biomedicals, Solon Ohio). ¼″ ceramic sphere (MP Biomedicals) was added to each tube and 500 μL of Glo Lysis Buffer—GLB (Promega, Madison Wis.) equilibrated to room temperature was added to liver tissue. Liver tissues were homogenized with the FastPrep24 instrument (MP Biomedicals) at 2×6.0 m/s for 15 seconds. Homogenate was incubated at room temperature for 5 minutes prior to a 1:4 dilution in GLB and assessed using SteadyGlo Luciferase assay system (Promega). Specifically, 50 μL of diluted tissue homogenate was reacted with 50 μL of SteadyGlo substrate, shaken for 10 seconds followed by 5 minute incubation and then quantitated using a CentroXS^3 LB 960 luminometer (Berthold Technologies, Germany). The amount of protein assayed was determined by using the BCA protein assay kit (Pierce, Rockford Ill.). Relative luminescence units (RLU) were then normalized to total ug protein assayed. To convert RLU to ng luciferase a standard curve was generated with QuantiLum Recombinant Luciferase (Promega). Based in the data provided in FIG. 1, the four-hour time point was chosen for efficacy evaluation of the lipid formulations (see Example 29).
The FLuc mRNA (L-6107) from Trilink Biotechnologies will express a luciferase protein, originally isolated from the firefly, Photinus pyralis. FLuc is commonly used in mammalian cell culture to measure both gene expression and cell viability. It emits bioluminescence in the presence of the substrate, luciferin. This capped and polyadenylated mRNA is fully substituted with 5-methylcytidine and pseudouridine.
The cationic lipids shown in Table 2 have previously been tested with nucleic acids. For comparative purposes, these lipids were also used to formulate lipid nanoparticles containing the FLuc mRNA (L-6107) using an in line mixing method, as described in example 28 and in PCT/US10/22614, which is hereby incorporated by reference in its entirety. […] Relative activity was determined by measuring luciferase expression in the liver 4 hours following administration via tail vein injection as described in example 28. The activity was compared at a dose of 0.3 and 1.0 mg mRNA/kg and expressed as ng luciferase/g liver measured 4 hours after administration, as described in Example 28. […]

Row | SMILES | pKa [1] | Liver Luc @ 0.3 mg/kg (ng luc/g liver) [2] | Liver Luc @ 1.0 mg/kg (ng luc/g liver) [2] | Liver Luc @ 0.3 mg/kg dose [2] | Liver Luc @ 1.0 mg/kg dose [2]
1 | CCCCCCCCC(=O)N(CCCN(C)C)C(CCCCCCCCCOC(=O)C(CCCCCC)CCCCCCCC)CCCCCCCCCOC(=O)C(CCCCCC)CCCCCCCC (centres unmarked) [Compound 36] | 6.13 | 541 ± 91 ng luc/g liver | 4736 ± 980 ng luc/g liver | – | –
2 | CCCCC/C=C\C/C=C\CCCCCCCCC(CCCCCCCC/C=C\C/C=C\CCCCC)C(=O)N(CCCCCCCCC)CCCN(C)C [Compound 16] | 6.37 | 231 ± 100 ng luc/g liver | 1185 ± 838 ng luc/g liver | – | –
3 | CCCCC/C=C\C/C=C\CCCCCCCCC(CCCCCCCC/C=C\C/C=C\CCCCC)N(C)CCN(C)C [B, reference compound] | 6.17 | 95 ± 41 ng luc/g liver | 1131 ± 384 ng luc/g liver | – | –
4 | CCCCC/C=C\C/C=C\CCCCCCCCC(CCCCCCCC/C=C\C/C=C\CCCCC)OC(=O)CCCCN(C)C [MC4, reference compound] | – | – | – | 41 ± 10 ng luciferase/g liver | –
5 | CCCCC/C=C\C/C=C\CCCCCCCCC(CCCCCCCC/C=C\C/C=C\CCCCC)N(CCCCCCCCC)CCCN(C)C [Compound 1] | 5.64 | 54 ± 8 ng luc/g liver | 226 ± 20 ng luc/g liver | – | –
6 | CCCCC/C=C\C/C=C\CCCCCCCCC(CCCCCCCC/C=C\C/C=C\CCCCC)N(CCCN(C)C)C(=O)C(CC)CCCCC (centres unmarked) [Compound 7] | 5.93 | 833 ± 401 ng luc/g liver | 8859 ± 780 ng luc/g liver | – | –
7 | CCCCCCCCC(=O)N(CCCN(C)C)C(CCCCCC(=O)OCC(CCCCCC)CCCCCCCC)CCCCCC(=O)OCC(CCCCCC)CCCCCCCC (centres unmarked) [Compound 38] | 6.45 | 905 ± 443 ng luc/g liver | 5353 ± 2082 ng luc/g liver | – | –
8 | CCCCCCCC(=O)N(CCCN(C)C)C(CCCCCCCCC(=O)OC(CCCCCC)CCCCCC)CCCCCCCCC(=O)OC(CCCCCC)CCCCCC [Compound 10] | 6.16 | 2379 ± 93 ng luc/g liver | 26181 ± 2900 ng luc/g liver | – | –
9 | CCCCC/C=C\C/C=C\CCCCCCCCC(CCCCCCCC/C=C\C/C=C\CCCCC)OC(=O)CCN(C)C [MC2, reference compound] | – | – | – | 4 ± 1 ng luciferase/g liver | –
10 | CCCCC/C=C\C/C=C\CCCCCCCCC(CCCCCCCC/C=C\C/C=C\CCCCC)N(CCCN(C)C)C(=O)CCCCCCCC(=O)OCC [Compound 37] | 5.61 | – | – | – | –
11 | CCCCC(CC)C(=O)OCCCCCCCCCC(CCCCCCCCCOC(=O)C(CC)CCCC)OC(=O)CCCN(C)C (centres unmarked) [Compound 137, reference compound] | – | – | – | 281 ± 203 ng luciferase/g liver | 588 ± 303 ng luciferase/g liver
12 | CCCCCCCCCCC(CCCCCCCC)COC(=O)CCCCCC(CCCCCC(=O)OCC(CCCCCCCC)CCCCCCCCCC)N(CCCN(C)C)C(=O)CCCCCCCC (centres unmarked) [Compound 41] | – | 832 ± 298 ng luc/g liver | 7437 ± 1612 ng luc/g liver | – | –
13 | CCCCC/C=C\C/C=C\CCCCCCCCC(CCCCCCCC/C=C\C/C=C\CCCCC)NCCCN(C)C [A, reference compound] | 7.05 | – | – | – | –
14 | CCCCCC/C=C\C/C=C\COC(=O)CCCCCCCC(CCCCCCCC(=O)OC/C=C\CCCCCC)OC(=O)CCCN(C)C (centres unmarked) [319 (2% PEG), reference compound] | – | – | – | 258 ± 67 ng luciferase/g liver | 681 ± 203 ng luciferase/g liver
15 | CCCCC/C=C\C/C=C\CCCCCCCCC1(CCCCCCCC/C=C\C/C=C\CCCCC)OC[C@@H](CCN(C)C)O1 [XTC2, reference compound] | – | – | – | 80 ± 28 ng luciferase/g liver | 237 ± 99 ng luciferase/g liver
16 | CCCCC/C=C\C/C=C\CCCCCCCCOCC(CN(C)C)OCCCCCCCC/C=C\C/C=C\CCCCC (centres unmarked) [DLinDMA, reference compound] | – | – | – | 13 ± 3 ng luciferase/g liver | 67 ± 20 ng luciferase/g liver

The next lines start with results.

Row | pKa [1] | SMILES | Liver Luc @ 0.3 mg/kg (ng luc/g liver) [2] | Liver Luc @ 1.0 mg/kg (ng luc/g liver) [2] | Liver Luc @ 0.3 mg/kg dose [2] | Liver Luc @ 1.0 mg/kg dose [2]
17 | 6.14 | CCCCC/C=C\C/C=C\CCCCCCCCC(CCCCCCCC/C=C\C/C=C\CCCCC)N(CCCN(C)C)C(=O)CCCCCCC/C=C\C/C=C\CCCCC [Compound 6] | 19 ± 4 ng luc/g liver | 211 ± 119 ng luc/g liver | – | –
18 | 5.97 | CCCCCCC(CCCC)COC(=O)CCCCCCCCC(CCCCCCCCC(=O)OCC(CCCC)CCCCCC)N(CCCN(C)C)C(=O)C(CC)CCCCC (centres unmarked) [Compound 35] | 1083 ± 350 ng luc/g liver | 8554 ± 4587 ng luc/g liver | – | –
19 | 6.33 | CCCCCCCC(=O)N(CCCN1CCCC1)C(CCCCCCCCC(=O)OCC(CCCC)CCCCCC)CCCCCCCCC(=O)OCC(CCCC)CCCCCC (centres unmarked) [Compound 14] | 2851 ± 438 ng luc/g liver | 15445 ± 3693 ng luc/g liver | – | –
20 | 5.35 | CCCCC/C=C\C/C=C\CCCCCCCCC(CCCCCCCC/C=C\C/C=C\CCCCC)N(CCCN(C)C)C(=O)C(CCCCCC)CCCCCCCC (centres unmarked) [Compound 8] | 105 ± 98 ng luc/g liver | 1238 ± 153 ng luc/g liver | – | –
21 | 6.21 | CCCCCCCCC(CCCCCC)COC(=O)CCCCCCCCC(CCCCCCCCC(=O)OCC(CCCCCC)CCCCCCCC)N(CCCN(C)C)C(=O)CCCCCCC (centres unmarked) [Compound 12] | 3336 ± 1394 ng luc/g liver | 13577 ± 1948 ng luc/g liver | – | –
22 | 6.13 | CCCCCCCCC(=O)N(CCCN(C)C)C(CCCCCCCCC(=O)OC(CCCCCC)CCCCCC)CCCCCCCCC(=O)OC(CCCCCC)CCCCCC [Compound 11] | 2273 ± 294 ng luc/g liver | 16502 ± 4301 ng luc/g liver | – | –
23 | 6.45 | CCCCCCCCC(CCCCCC)COC(=O)CCCCCC(CCCCCC(=O)OCC(CCCCCC)CCCCCCCC)N(CCCN(C)C)C(=O)CCCCCCC (centres unmarked) [Compound 39] | 779 ± 82 ng luc/g liver | 5180 ± 2116 ng luc/g liver | – | –
24 | 6.36 | CCCCC/C=C\C/C=C\CCCCCCCCC(CCCCCCCC/C=C\C/C=C\CCCCC)N(CC)CCCN(C)C [C, reference compound] | 24 ± 4 ng luc/g liver | 77 ± 19 ng luc/g liver | – | –
